Legend:
Type in all cases: cell-based
[1] = molecular target: T1, Human AR (Homo sapiens (Human), UniProt P10275); assay: AR antagonist assay (GRE-LUC luciferase, transfected HEK-293 cells, with 0.1 nM R1881); conditions: with 0.1 nM R1881
Protocol: (§1) Human AR cDNA cloned into pCMV vector, GRE-LUC, and CMV-renilla-LUC were used to transfect cells. HEK-293 cells (ATCC) were plated at 120,000 cells per well of a 24 well plate in DME+5% csFBS (Fisher Scientific, Waltham, Mass.). The cells were transfected using Lipofectamine (Life Technologies, Carlsbad, Calif.) with 0.25 μg GRE-LUC, 0.010 μg CMV-LUC (renilla luciferase) and 25 ng of the AR. […] Luciferase assay was performed 48 hrs after transfection. Firefly luciferase assay values were normalized to renilla luciferase values and were graphed using graphpad prism software (La Jolla, Calif.). […] The IC50 or EC50 values were determined using non-linear regression and […] logistics fitting.

[2] = molecular target: GR (Homo sapiens (Human), UniProt P04150); assay: GR antagonist assay (GRE-LUC luciferase, transfected COS-7 cells, with 0.1 nM dexamethasone); conditions: in the presence of 0.1 nM dexamethasone
Protocol: COS-7 cells (ATCC, Manassas, Va.) were plated in 24 well plates in DME+5% csFBS without phenol red at 70,000 cells/well. Once the cells attached to the plates (typically after overnight incubation after plating), they were transfected in OPTIMEM medium (Life Technologies) using lipofectamine reagent (Life Technologies) with 0.25 μg GRE-LUC, 25 ng pCR3.1 GR, and 10 ng CMV-renilla LUC per well. Twenty-four hours after transfection, the cells were fed with DME+5% csFBS without phenol red (Fisher Scientific, Waltham, Mass.) and treated with the test compounds (1 pM to 10 μM dose range) in the presence of 0.1 nM dexamethasone (Sigma, St. Louis, Mo.). Sixteen to twenty-four hours after treatment, a luciferase assay was performed using the Dual Luciferase assay kit (Promega, Madison, Wis.). Firefly luciferase values were normalized to Renilla luciferase numbers.

[3] = system: LNCaP-abl cells; assay: Cell proliferation assay, LNCaP-abl (CellTiter-Glo); conditions: 72 h, 3 days; for activity at 3 µM: read-out: cell proliferation, % of vehicle at 3 μM; for activity at 10 µM: read-out: cell proliferation, % of vehicle at 10 μM
Protocol: LNCaP-abl (3,000 cells/well, received from Dr. Myles Brown, Dana Farber Cancer Institute), 22RV1 (1,000 cells/well), LNCaP (5,000 cells/well), or COS (3,000 cells/well) cells were plated in 96 well plates in 50 μl RPMI+10% FBS (Fisher Scientific, Waltham, Mass.). LNCaP, COS, and 22RV1 cells were obtained from ATCC. Cells were treated in RPMI+10% FBS with test articles, ranging from 1 nM to 10 μM. Three days later, viable cells (LNCaP-abl, 22RV1, and COS) were measured by CellTiter-Glo assay (Promega, Madison, Wis.). For LNCaP cells, medium containing test article was changed after 3 days of treatment, and after an additional 3 days of culture, viable cells were measured by CellTiter-Glo assay.
The LNCaP cell line is androgen responsive with AR and PSA expression. It contains a T877A mutation in the AR. The 22RV1 cell line is positive for AR and PSA with additional AR splice variants and is insensitive to androgen for cell proliferation. The LNCaP-abl cell line expresses both AR and GR but is insensitive to androgen for cell proliferation. COS-7 is used as an AR negative cell line in this experiment.

[4] = molecular target: T1, Human AR; assay: AR agonist assay (GRE-LUC luciferase, transfected HEK-293 cells, test article alone); conditions: HEK-293 transfected with human AR, read-out: AR Agonist IC50
Protocol: as §1

T1 sequence (P10275 whole entry): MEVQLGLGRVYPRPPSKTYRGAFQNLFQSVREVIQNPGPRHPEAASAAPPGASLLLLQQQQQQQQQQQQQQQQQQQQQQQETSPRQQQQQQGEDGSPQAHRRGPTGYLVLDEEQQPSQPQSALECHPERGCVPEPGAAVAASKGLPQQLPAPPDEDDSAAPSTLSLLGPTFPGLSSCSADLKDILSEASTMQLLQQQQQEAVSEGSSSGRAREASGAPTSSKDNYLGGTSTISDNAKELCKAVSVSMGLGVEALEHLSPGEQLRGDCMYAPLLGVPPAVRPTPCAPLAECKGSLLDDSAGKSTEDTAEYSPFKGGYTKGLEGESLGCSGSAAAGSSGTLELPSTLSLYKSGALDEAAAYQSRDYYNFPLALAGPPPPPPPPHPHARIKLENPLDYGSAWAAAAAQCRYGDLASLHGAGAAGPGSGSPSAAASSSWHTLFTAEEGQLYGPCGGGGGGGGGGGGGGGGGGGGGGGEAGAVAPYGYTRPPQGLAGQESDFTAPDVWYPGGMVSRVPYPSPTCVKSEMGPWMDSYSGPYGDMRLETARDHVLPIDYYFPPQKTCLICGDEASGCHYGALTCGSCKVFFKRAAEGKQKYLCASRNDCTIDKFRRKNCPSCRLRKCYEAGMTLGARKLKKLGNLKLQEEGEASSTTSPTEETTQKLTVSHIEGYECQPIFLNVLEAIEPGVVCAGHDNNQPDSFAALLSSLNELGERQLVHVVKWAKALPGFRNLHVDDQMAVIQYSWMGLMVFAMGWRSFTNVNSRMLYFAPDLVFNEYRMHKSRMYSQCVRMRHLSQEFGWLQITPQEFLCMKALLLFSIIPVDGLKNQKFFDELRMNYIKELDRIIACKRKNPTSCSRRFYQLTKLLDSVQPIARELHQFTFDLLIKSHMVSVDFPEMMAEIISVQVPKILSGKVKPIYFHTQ
Chain of GR (P04150 whole entry): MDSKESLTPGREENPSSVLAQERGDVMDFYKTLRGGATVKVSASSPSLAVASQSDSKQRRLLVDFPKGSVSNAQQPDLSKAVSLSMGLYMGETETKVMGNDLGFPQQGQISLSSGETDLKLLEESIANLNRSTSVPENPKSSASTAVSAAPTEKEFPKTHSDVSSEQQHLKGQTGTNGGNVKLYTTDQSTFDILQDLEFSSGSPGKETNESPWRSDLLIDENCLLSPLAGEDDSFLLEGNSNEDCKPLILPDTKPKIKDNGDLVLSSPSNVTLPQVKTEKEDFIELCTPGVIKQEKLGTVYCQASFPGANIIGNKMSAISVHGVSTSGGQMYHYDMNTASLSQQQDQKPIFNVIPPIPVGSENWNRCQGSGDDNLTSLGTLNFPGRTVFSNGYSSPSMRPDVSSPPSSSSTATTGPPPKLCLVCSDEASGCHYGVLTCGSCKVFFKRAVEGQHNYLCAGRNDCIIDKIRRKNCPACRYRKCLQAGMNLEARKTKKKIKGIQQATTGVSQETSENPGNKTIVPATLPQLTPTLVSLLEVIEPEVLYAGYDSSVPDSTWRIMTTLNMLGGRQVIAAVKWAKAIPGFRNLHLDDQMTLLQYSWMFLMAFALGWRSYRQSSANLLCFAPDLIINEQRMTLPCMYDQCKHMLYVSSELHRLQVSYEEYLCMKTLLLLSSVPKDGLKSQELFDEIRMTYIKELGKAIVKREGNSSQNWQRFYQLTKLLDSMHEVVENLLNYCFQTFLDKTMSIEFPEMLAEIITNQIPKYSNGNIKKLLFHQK

| Structure (SMILES) | IC50 [1] | IC50 [2] | activity at 3 µM [3] | activity at 10 µM [3] | EC50 [4] |
| --- | --- | --- | --- | --- | --- |
| Cc1ncsc1C(=O)NCc1ccc(N2C(=S)N(c3ccc(C#N)c(C(F)(F)F)c3)C(=O)C2(C)C)cc1 [Compound 39] | 200 nM | > 10000 nM | 90% | 87% |  |
| CC1(C)C(=O)N(c2ccc(C#N)c(C(F)(F)F)c2)C(=S)N1c1ccc(CNC(=O)c2cncnc2)c(F)c1 [Compound 15] | 320 nM | > 10000 nM | 81% | 70% |  |
| CC1(C)C(=O)N(c2ccc(C#N)c(C(F)(F)F)c2)C(=S)N1c1ccc(CNC(=O)c2ncccn2)cc1 [Compound 19] | 453 nM | > 10000 nM |  |  | > 10000 nM |
| CC1(C)C(=O)N(c2ccc(C#N)c(C(F)(F)F)c2)C(=S)N1c1ccc(CNC(=O)c2nccs2)c(F)c1 [Compound 2] | 31 nM | > 10000 nM | 78% | 71% |  |
| CC1(C)C(=O)N(c2ccc(C#N)c(C(F)(F)F)c2)C(=S)N1c1ccc(CNC(=O)c2cnco2)c(F)c1 [Compound 60] | 115 nM | > 10000 nM | 75% | 96% |  |
| CC1(C)C(=O)N(c2ccc(C#N)c(C(F)(F)F)c2)C(=S)N1c1ccc(CNC(=O)c2cncs2)cc1 [Compound 18] | 358 nM | > 10000 nM |  |  | > 10000 nM |
| Cc1ncsc1C(=O)NCc1ccc(N2C(=S)N(c3cccc(C(F)(F)F)c3)C(=O)C2(C)C)cc1F [Compound 76, N-(4-(5,5-dimethyl-4-oxo-2-thioxo-3-(3-(trifluoromethyl)phenyl)-imidazolidin-1-yl)-2-fluorobenzyl)-4-methylthiazole-5-carboxamide] | > 10000 nM | 3310 nM | 72% | 88% |  |
| Cc1ncsc1C(=O)NCc1ccc(N2C(=S)N(c3ccc(C#N)c(C(F)(F)F)c3)C(=O)C2(C)C)cc1Cl [Compound 32] | 120 nM | > 10000 nM | 93% | 62% |  |
| CC1(C)C(=O)N(c2ccc(C#N)c(C(F)(F)F)c2)C(=S)N1c1ccc(CNC(=O)c2cccnc2)c(F)c1 [Compound 12] | 108 nM | > 10000 nM | 95% | 61% | > 10000 nM |
| Cn1ccnc1C(=O)NCc1ccc(N2C(=S)N(c3ccc(C#N)c(C(F)(F)F)c3)C(=O)C2(C)C)cc1F [Compound 4] | 386 nM |  |  |  | > 10000 nM |

Source: patent US11292782B2, “Diarylhydantoin compounds and methods of use thereof” (Nuvation Bio Inc., priority 2018, dated 2022)
